Assay results published in the NIST ThermoML archive (doi:10.1016/j.jct.2016.08.015).
± gives the expanded uncertainty stated by the source.

Experiment: xn = mol fraction of the nth substance listed
Conditions: 101.3 kPa, Liquid, Pycnometric method

SMILES | mass density (303.15 K, x1 = 0.75) [kg/m3] | mass density (313.15 K, x1 = 0.75) [kg/m3] | mass density (323.15 K, x1 = 0.75) [kg/m3] | mass density (333.15 K, x1 = 0.75) [kg/m3] | mass density (303.15 K, x2 = 0.75) [kg/m3] | mass density (313.15 K, x2 = 0.75) [kg/m3] | mass density (323.15 K, x2 = 0.75) [kg/m3] | mass density (333.15 K, x2 = 0.75) [kg/m3]
CC(=O)CCC(=O)O [4-oxopentanoic acid] + CCCC[N+](CCCC)(CCCC)CCCC.[Br-] | 1093.5 ± 1.1 | 1086.2 ± 1.1 | 1078.8 ± 1.1 | 1072.1 ± 1.1 |  |  |  | 
CC(=O)CCC(=O)O [4-oxopentanoic acid] + CC[N+](CC)(CC)CC.[Br-] | 1169.9 ± 1.1 | 1162.2 ± 1.1 | 1154.6 ± 1.1 | 1147.4 ± 1.2 |  |  |  | 
CC(=O)OCC[N+](C)(C)C.[Cl-] [acetylcholine chloride] + CC(=O)CCC(=O)O |  |  |  |  | 1136.9 ± 1.1 | 1129.4 ± 1.1 | 1121.8 ± 1.1 | 1114.4 ± 1.1
CCCC[N+](CCCC)(CCCC)CCCC.[Cl-] [tetrabutylammonium chloride] + CC(=O)CCC(=O)O |  |  |  |  | 1027.3 ± 1.2 | 1020.3 ± 1.3 | 1013.1 ± 1.3 | 1006 ± 1.3
CC[N+](CC)(CC)CC.[Cl-] [tetraethylammonium chloride] + CC(=O)CCC(=O)O |  |  |  |  | 1090.3 ± 1.3 | 1083.3 ± 1.3 | 1076.1 ± 1.3 | 1069.2 ± 1.3
